From US12534469B2 (CHILDREN'S HOSPITAL MEDICAL CENTER, priority 2020, dated 2026)
Values belong to the compound of their own block, whether it stands above or below them.

Assays:
[1] = target: T1, FLT3 (Homo sapiens, UniProt P36888); experiment: RBC HotSpot Kinase Assay, FLT3; assay type: biochemical
T1 construct: purchased Reaction Biology (RBC HotSpot Kinase Assay)
T1 sequence (P36888 564-958 limits assumed): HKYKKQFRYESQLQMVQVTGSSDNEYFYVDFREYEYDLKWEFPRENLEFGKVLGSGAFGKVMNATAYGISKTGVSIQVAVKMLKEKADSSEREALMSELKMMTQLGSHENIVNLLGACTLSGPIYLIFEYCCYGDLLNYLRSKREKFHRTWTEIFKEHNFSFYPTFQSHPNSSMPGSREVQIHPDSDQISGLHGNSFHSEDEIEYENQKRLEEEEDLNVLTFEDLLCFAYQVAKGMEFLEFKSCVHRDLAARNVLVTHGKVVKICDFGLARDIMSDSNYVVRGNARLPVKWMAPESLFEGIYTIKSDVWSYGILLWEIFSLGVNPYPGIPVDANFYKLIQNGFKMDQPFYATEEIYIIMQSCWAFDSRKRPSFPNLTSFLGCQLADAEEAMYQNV
Outline: (§1)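 Radiometric filter-binding (HotSpot) activity assay on isolated recombinant kinase, possibly truncated or catalytic domain only, in 20 mM Hepes pH 7.5, 10 mM MgCl2, 1 mM EGTA, 2 mM DTT, 1% DMSO. Compound preincubated 20 min with kinase and substrate, then ^33P-ATP added. Reaction 2 h at room temperature, read by P81 filter binding.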

[2] = target: T2, IRAK1 (Homo sapiens, UniProt P51617); experiment: RBC HotSpot Kinase Assay, IRAK1; assay type: biochemical
T2 construct: purchased Reaction Biology (RBC HotSpot Kinase Assay)
T2 sequence (P51617 whole entry): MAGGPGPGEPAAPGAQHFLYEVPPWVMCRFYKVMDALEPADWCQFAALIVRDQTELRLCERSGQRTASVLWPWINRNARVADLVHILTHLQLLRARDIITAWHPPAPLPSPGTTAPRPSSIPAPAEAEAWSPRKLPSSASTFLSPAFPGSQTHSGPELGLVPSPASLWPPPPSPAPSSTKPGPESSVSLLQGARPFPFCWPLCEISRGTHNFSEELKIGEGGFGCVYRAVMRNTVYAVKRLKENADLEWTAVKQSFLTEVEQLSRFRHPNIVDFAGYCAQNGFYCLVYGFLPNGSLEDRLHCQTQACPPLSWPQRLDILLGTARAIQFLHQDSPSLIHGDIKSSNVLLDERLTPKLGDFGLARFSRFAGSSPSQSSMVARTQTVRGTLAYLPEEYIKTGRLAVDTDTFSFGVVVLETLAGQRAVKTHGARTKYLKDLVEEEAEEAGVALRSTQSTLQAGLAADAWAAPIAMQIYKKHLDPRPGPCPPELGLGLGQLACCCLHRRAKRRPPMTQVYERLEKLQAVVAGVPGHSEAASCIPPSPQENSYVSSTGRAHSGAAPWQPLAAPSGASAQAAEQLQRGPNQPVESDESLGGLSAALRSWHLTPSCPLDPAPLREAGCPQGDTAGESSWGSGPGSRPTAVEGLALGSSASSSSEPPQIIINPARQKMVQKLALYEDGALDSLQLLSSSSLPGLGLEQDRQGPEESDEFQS
Outline: as §1

[3] = target: T3, IRAK4 (Homo sapiens, UniProt Q9NWZ3); experiment: RBC HotSpot Kinase Assay, IRAK4; assay type: biochemical; design: purchased Reaction Biology (RBC HotSpot Kinase Assay)
T3 sequence (Q9NWZ3 1-460): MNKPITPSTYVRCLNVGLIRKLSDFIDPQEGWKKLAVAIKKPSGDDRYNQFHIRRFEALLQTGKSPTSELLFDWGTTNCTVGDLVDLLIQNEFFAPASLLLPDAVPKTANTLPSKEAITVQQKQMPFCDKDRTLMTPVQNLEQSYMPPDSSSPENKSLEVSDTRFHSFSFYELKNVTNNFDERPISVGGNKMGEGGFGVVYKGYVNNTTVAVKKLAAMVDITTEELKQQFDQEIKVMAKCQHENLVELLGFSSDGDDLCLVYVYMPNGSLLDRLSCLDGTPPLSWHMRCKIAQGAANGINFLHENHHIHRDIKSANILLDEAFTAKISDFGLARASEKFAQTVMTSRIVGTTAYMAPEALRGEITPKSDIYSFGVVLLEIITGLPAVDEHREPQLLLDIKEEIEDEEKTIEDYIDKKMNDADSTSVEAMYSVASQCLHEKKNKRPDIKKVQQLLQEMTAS
Outline: as §1

[4] = tested on: MOLM14 D835Y cells; experiment: MOLM14 D835Y cell viability assay (Cell Titer Glo); assay type: cell-based; details: Homo sapiens, MOLM-14, 48 h
Description: Both cell lines have activated FLT3 receptors, each of which carry additional resistance mutations in the kinase domain (D835Y and F691L, respectively).
MOLM14 D835Y and MOLM14 F691L cells were grown in RPMI-1640 media supplemented with 20% fetal bovine serum (FBS). For viability/cytotoxicity assessments, cells were seeded into 1536-well white polystyrene tissue culture-treated Greiner plates using a Multidrop Combi dispenser (ThermoFisher), in final volume 5 μL of growth media per well, at a density of 1000 cells per well. After cell addition, 23 nL of test compound were transferred into individual wells (22 doses tested for each test compound, with a 1:2 dilution series starting at 10 μM) via a 1536 pin-tool. Bortezomib (final concentration 2.3 μM) was used as a positive control for cell cytotoxicity. Plates were incubated for 48 hours at standard incubator conditions covered by a stainless steel gasketed lid to prevent evaporation. 48 hours post compound addition, 3 μL of Cell Titer Glo (Promega) were added to each well and plates were incubated at room temperature for 15 minutes with the stainless-steel lid in place. Luminescence readings were taken using a Viewlux imager (PerkinElmer) with a 2 second exposure time per plate.

[5] = tested on: MOLM14 (D835Y) cells; experiment: Combination drug screening, 10 x 10 matrix, cell viability (Cell Titer Glo); assay type: cell-based; details: for Sum Excess HSA / Interaction with Compound 96: combination with Compound 96, 10 x 10 dataset; for Sum Excess HSA: 48 hours; for concentration required to reach a similar level of potentiation as Compound 106: 7.8 nM Venetoclax, 10×10 combination, compared with Compound 106; for Interaction with Venetoclax: combination with Venetoclax, 10 x 10 dataset
Description: Briefly, 10 nL of compounds were acoustically dispensed into 1536-well white polystyrene tissue culture-treated plates with an Echo 550 acoustic liquid handler (Labcyte). MOLM14 (D835Y) cells were then added to compound-containing plates at a density of 500-cells/well in 5 μL of medium. A 10-point custom concentration range was used for all listed drugs. Plates were incubated for 48 hours at standard incubator conditions covered by a stainless steel gasketed lid to prevent evaporation. 48 h post compound addition, 3 μL of Cell Titer Glo (Promega) were added to each well and plates were incubated at room temperature for 15 minutes with the stainless-steel lid in place. Luminescence readings were taken using a Viewlux imager (PerkinElmer) with a 2 second exposure time per plate.
However, different methodologies may yield different numerical scores, and different definitions of what constitutes a deviation from mere additivity vs true drug synergy.
However, the utility in certain drug combinations vs others should not be distinguished based on cutoffs between HSA scores, because the score itself is only a relative indicator that is completely dependent on experimental design and is not an absolute number. Furthermore, the concept of what constitutes clinically meaningful drug synergy is something that is still being debated, not only between pharmacologists and physicians, but amongst pharmacologists themselves.

IC50 [1]: < 0.5 nM
IC50 [2]: 3 nM
IC50 [3]: < 0.5 nM
IC50 [4]: 333 nM
Compound: F[C@H]1CNCC[C@@H]1Nc1cccc(-c2cnc3ccc(-c4cnn5ccccc45)nn23)n1 [Compound 20, N-((3S,4S)-3-fluoropiperidin-4-yl)-6-(6-(pyrazolo[1,5-a]pyridin-3-yl)imidazo[1,2-b]pyridazin-3-yl)pyridin-2-amine]

IC50 [1]: 2 nM
IC50 [2]: 954 nM
IC50 [3]: 25 nM
IC50 [4]: 591 nM
Compound: COc1cc2ncc(-c3cccc(N[C@@H]4CCNC4)n3)n2nc1C1(C(F)(F)F)CC1 [Compound 81, (R)-6-(7-methoxy-6-(1-(trifluoromethyl)cyclopropyl)imidazo[1,2-b]pyridazin-3-yl)-N-(pyrrolidin-3-yl)pyridin-2-amine]

IC50 [1]: 1 nM
IC50 [2]: 595 nM
IC50 [3]: 18 nM
IC50 [4]: 357 nM
Compound: COc1cc2ncc(-c3cccc(N[C@H]4CNC[C@@H]4F)n3)n2nc1C1(C(F)(F)F)CC1 [Compound 82, N-((3S,4S)-4-fluoropyrrolidin-3-yl)-6-(7-methoxy-6-(1-(trifluoromethyl)cyclopropyl)imidazo[1,2-b]pyridazin-3-yl)pyridin-2-amine]

IC50 [1]: 0.8 nM
IC50 [2]: 3670 nM
IC50 [3]: 25 nM
IC50 [4]: 259 nM
Compound: COc1cc2ncc(-c3cccc(N[C@H]4CNC[C@@H]4C)n3)n2nc1C1(C(F)(F)F)CC1 [Compound 83, 6-(7-methoxy-6-(1-(trifluoromethyl)cyclopropyl)imidazo[1,2-b]pyridazin-3-yl)-N-((3R,4S)-4-methylpyrrolidin-3-yl)pyridin-2-amine]

IC50 [1]: 1 nM
IC50 [2]: 536 nM
IC50 [3]: 83 nM
IC50 [4]: 179 nM
Compound: COc1cc2ncc(-c3cccc(N[C@@H]4CCCNC4)n3)n2nc1C1(C(F)(F)F)CC1 [Compound 84, (R)-6-(7-methoxy-6-(1-(trifluoromethyl)cyclopropyl)imidazo[1,2-b]pyridazin-3-yl)-N-(piperidin-3-yl)pyridin-2-amine]

IC50 [1]: < 0.5 nM
IC50 [2]: 1380 nM
IC50 [3]: < 0.5 nM
IC50 [4]: 20 nM
Compound: COc1cc2ncc(-c3cccc(N[C@H]4CNCC45CC5)n3)n2nc1C1CC1 [Compound 100, (R)-N-(6-(6-cyclopropyl-7-methoxyimidazo[1,2-b]pyridazin-3-yl)pyridin-2-yl)-5-azaspiro[2.4]heptan-7-amine]

IC50 [1]: 9 nM
IC50 [2]: > 10000 nM
IC50 [3]: 399 nM
IC50 [4]: 968 nM
Compound: F[C@H]1CNC[C@@H]1Nc1cccc(-c2cnc3cccnn23)n1 [Compound 109, N-((3S,4S)-4-fluoropyrrolidin-3-yl)-6-(imidazo[1,2-b]pyridazin-3-yl)pyridin-2-amine]

Compound: Cc1c(-c2c(-c3ccc(F)o3)sc3ncnc(O[C@H](Cc4ccccc4OCc4ccnn4CC(F)(F)F)C(=O)O)c23)ccc(OCCN2CCN(C)CC2)c1Cl [Compound S63845]
Sum Excess HSA [5]: 297.3

Compound: COc1c(OCCCN2CCOCC2)ccc2c1N=C(NC(=O)c1cnc(N)nc1)N1CCN=C21 [Copanlisib]
Sum Excess HSA [5]: −542.8

Compound: C[C@@H]1C[C@H]2[C@@H]3CCC4=CC(=O)C=C[C@]4(C)[C@@]3(F)[C@@H](O)C[C@]2(C)[C@@]1(O)C(=O)CO [Dexamethasone, dexamethasone, reference compound]
Sum Excess HSA [5]: −69.67

Compound: CN1C(=O)[C@@H](NC(=O)c2n[nH]c(Cc3ccccc3)n2)COc2ccccc21 [GSK-2982772]
Interaction with Compound 96 [5]: Synergestic
Sum Excess HSA [5]: −577

Compound: Nc1ccn([C@@H]2O[C@H](CO)[C@@H](O)C2(F)F)c(=O)n1 [Gemcitabine, reference compound]
Sum Excess HSA [5]: 30.69

Compound: O=C1CC[C@H](N2Cc3c(OCc4ccc(CN5CCOCC5)cc4)cccc3C2=O)C(=O)N1 [Iberdomide]
Interaction with Compound 96 [5]: Antagonistic

Compound: COc1cc(C(=O)O)ccc1NC(=O)[C@@H]1N[C@@H](CC(C)(C)C)[C@](C#N)(c2ccc(Cl)cc2F)[C@H]1c1cccc(Cl)c1F [Idasanutlin]
Sum Excess HSA [5]: 192.3

Compound: C[C@H]1C[C@@H]2[C@H]([C@@H](O)C[C@@]3(C)[C@H]2CC[C@]3(O)C(=O)CO)[C@@]2(C)C=CC(=O)C=C12 [Methylprednisolone, methylprednisolone, reference compound]
Sum Excess HSA [5]: 891

Compound: CC1(C)CCC(c2ccc(Cl)cc2)=C(CN2CCN(c3ccc(C(=O)NS(=O)(=O)c4ccc(N[C@H](CCN5CCOCC5)CSc5ccccc5)c(S(=O)(=O)C(F)(F)F)c4)cc3)CC2)C1 [Navitoclax (ABT-263), Navitoclax, reference compound]
Sum Excess HSA [5]: −227.3

Compound: CN1C(=O)N[C@H](Cc2c[nH]c3c(Cl)cccc23)C1=O [Necrostatin 2]
Sum Excess HSA [5]: 288.7

Compound: CC1(C)CC[C@]2(NC(=O)C(C)(F)F)CC[C@]3(C)[C@H](C(=O)C=C4[C@@]5(C)C=C(C#N)C(=O)C(C)(C)[C@@H]5CC[C@]43C)[C@@H]2C1 [Omaveloxolone]
Sum Excess HSA [5]: 196

Compound: CC(=O)c1c(C)c2cnc(Nc3ccc(N4CCNCC4)cn3)nc2n(C2CCCC2)c1=O [Palbociclib, reference compound]
Sum Excess HSA [5]: 999.2

Compound: C[C@]12C=CC(=O)C=C1CC[C@@H]1[C@@H]2[C@@H](O)C[C@@]2(C)[C@H]1CC[C@]2(O)C(=O)CO [Prednisolone, prednisolone, reference compound]
Sum Excess HSA [5]: −46.1

Compound: CC(C)(C)c1cc(NC(=O)Nc2ccc(-c3cn4c(n3)sc3cc(OCCN5CCOCC5)ccc34)cc2)no1 [Quizartinib, reference compound]
concentration required to reach a similar level of potentiation as Compound 106 [5]: substantially higher concentrations
Interaction with Venetoclax [5]: synergize

Compound: COc1cccc2nc(-c3cccs3)nc(NN3C(=O)C=C(C)C3=O)c12 [SPC-839]
Sum Excess HSA [5]: −326.8

Compound: CC1(C)CCC(C)(C)c2cc(NC(=O)c3ccc(C(=O)O)cc3)ccc21 [Tamibarotene]
Sum Excess HSA [5]: 850.4

Compound: CCOC(=O)c1ccc(C#Cc2ccc3c(c2)C(C)(C)CCS3)nc1 [Tazarotene]
Sum Excess HSA [5]: −189

Compound: CCN(c1cc(-c2ccc(CN3CCOCC3)cc2)cc(C(=O)NCc2c(C)cc(C)[nH]c2=O)c1C)C1CCOCC1 [Tazemetostat, tazemetostat, reference compound]
Sum Excess HSA [5]: 74.36

Compound: CC1(C)CCC(CN2CCN(c3ccc(C(=O)NS(=O)(=O)c4ccc(NCC5CCOCC5)c([N+](=O)[O-])c4)c(Oc4cnc5[nH]ccc5c4)c3)CC2)=C(c2ccc(Cl)cc2)C1 [Venetoclax (ABT-199), venetoclax, reference compound]
Sum Excess HSA [5]: −549.6211

Compound: Gilteritinib hemifumarate [reference compound]
concentration required to reach a similar level of potentiation as Compound 106 [5]: substantially higher concentrations

Compound: Gilteritinib hemifumerate [reference compound]
Interaction with Venetoclax [5]: synergize
